The target in the test is T1, Exodeoxyribonuclease V (Escherichia coli (strain K12), UniProt P04993+P07648+P08394).
T1 sequence (P04993 whole entry): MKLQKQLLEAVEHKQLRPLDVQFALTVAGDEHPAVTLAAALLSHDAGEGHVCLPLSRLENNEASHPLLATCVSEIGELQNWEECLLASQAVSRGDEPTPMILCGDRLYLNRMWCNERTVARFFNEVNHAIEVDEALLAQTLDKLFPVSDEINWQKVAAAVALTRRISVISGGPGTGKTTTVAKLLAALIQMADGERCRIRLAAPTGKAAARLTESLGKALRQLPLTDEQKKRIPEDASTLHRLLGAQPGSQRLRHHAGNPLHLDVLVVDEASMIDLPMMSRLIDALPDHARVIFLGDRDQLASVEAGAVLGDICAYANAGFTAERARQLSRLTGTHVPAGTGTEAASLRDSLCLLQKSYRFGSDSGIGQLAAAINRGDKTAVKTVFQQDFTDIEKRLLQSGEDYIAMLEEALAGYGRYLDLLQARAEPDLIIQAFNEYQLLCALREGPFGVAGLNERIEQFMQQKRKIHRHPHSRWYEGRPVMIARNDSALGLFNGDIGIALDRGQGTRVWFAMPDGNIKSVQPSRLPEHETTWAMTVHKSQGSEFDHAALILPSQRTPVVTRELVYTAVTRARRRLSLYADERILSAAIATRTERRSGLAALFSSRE
T1 sequence (P07648 whole entry): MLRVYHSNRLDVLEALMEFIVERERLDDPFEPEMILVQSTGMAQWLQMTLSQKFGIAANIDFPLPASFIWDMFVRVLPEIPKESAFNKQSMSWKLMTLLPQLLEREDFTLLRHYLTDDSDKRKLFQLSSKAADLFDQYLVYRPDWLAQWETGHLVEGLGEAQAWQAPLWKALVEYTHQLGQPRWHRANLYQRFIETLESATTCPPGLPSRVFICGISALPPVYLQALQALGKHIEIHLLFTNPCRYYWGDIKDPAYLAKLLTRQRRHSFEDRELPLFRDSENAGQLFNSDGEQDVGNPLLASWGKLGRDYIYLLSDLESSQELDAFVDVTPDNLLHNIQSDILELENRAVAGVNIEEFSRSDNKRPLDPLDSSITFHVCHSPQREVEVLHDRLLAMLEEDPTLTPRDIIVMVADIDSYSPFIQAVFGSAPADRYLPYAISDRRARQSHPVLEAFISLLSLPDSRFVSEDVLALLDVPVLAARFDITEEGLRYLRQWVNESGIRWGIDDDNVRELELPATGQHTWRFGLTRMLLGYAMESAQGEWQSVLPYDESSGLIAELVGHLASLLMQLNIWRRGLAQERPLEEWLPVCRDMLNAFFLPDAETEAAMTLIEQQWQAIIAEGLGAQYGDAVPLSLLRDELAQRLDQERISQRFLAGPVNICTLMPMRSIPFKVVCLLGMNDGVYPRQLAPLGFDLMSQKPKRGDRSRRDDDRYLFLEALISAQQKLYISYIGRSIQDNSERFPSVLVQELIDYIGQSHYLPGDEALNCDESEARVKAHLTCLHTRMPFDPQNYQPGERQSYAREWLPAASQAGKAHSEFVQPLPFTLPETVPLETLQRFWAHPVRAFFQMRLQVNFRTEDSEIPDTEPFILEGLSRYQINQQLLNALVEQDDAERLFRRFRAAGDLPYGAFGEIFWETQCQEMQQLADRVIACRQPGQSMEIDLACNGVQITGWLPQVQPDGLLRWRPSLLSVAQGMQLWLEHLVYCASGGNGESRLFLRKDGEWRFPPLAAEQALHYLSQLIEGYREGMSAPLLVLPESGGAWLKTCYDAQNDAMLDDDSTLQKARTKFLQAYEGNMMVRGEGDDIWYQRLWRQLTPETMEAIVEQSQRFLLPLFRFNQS
T1 sequence (P08394 whole entry): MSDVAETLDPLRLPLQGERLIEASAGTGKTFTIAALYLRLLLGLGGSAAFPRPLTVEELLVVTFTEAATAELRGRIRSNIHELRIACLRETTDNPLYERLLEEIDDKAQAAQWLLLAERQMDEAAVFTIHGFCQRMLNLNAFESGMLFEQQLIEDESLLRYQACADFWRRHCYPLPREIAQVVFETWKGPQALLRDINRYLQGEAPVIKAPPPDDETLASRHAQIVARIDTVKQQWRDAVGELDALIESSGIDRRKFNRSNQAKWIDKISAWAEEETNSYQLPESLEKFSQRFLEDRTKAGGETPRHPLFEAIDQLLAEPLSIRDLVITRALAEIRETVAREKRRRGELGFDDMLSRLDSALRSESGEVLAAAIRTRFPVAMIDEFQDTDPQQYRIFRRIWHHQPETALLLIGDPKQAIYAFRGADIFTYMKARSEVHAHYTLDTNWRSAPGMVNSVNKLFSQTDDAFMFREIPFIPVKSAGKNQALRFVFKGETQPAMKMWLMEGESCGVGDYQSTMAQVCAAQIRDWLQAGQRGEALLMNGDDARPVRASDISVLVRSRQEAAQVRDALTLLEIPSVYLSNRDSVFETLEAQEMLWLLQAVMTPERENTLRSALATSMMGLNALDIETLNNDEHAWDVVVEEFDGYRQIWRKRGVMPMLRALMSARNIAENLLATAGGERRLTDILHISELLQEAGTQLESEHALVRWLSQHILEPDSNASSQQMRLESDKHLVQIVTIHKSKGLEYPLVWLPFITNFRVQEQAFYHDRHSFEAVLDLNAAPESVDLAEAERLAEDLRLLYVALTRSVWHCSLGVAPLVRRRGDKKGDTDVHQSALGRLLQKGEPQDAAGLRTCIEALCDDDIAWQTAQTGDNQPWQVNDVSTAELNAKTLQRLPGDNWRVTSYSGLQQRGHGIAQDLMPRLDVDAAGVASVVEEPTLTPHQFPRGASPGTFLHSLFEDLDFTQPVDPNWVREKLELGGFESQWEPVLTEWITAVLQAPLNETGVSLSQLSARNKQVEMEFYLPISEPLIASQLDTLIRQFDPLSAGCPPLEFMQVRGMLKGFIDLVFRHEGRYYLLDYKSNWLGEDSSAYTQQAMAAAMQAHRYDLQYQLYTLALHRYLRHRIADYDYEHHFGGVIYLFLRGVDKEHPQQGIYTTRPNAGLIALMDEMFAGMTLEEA
The experiment in a line: E. coli RecBCD inhibitors, dose response, counter-screen for AddAB inhibitor project, absorbance, V66 E. coli, mutant T4 phage (AID 492957). The test is classed as functional, cell-based, Escherichia coli str. K-12 substr. MG1655.

The values that follow come from ChEMBL document CHEMBL1201862, “PubChem BioAssay data set” (2004).

Activity calls are given as the source filed them. The rule behind the calls is not given here. Where only a bound is given, the exact number is not on record here.

Take `O=C1c2ccccc2C(=O)c2[nH]c(O)nc21`: the IC50 is > 119 µM (inactive).
